Experimental findings from patent US9669005B2, “Use of naringenin in preparing drugs for preventing and/or treatment abdominal aortic aneurysm” (priority 2013, dated 2017) are described below.

A short description of data set [1]: Body weight and blood fat of CaPO4 treated C57BL/6J mice. The data set is classed as in vivo. The conditions noted are these: CaPO4 treated C57BL/6J mice; gavage 7 days; naringenin 50 mg/kg, doxycycline 100 mg/kg. Here is the method:
(§1) Gavage was started at the first day after surgery, and water, naringenin (50 mg/kg) (Sigma-Aldrich, St. Louis, Mo.) or doxycycline (100 mg/kg) (Sigma-Aldrich, St. Louis, Mo.) gavage were given on mice daily. Materials were removed from the mice 7 days after gavage. Mice were weighed, and blood was drawn from inner canthus by capillary, after centrifuged for 10 minutes at 6000 rotations, the supernatant was removed and blood fat was measured (kit is purchased from BIOSINO company). Then perfusion and washing were performed on mice using PBS. Blood vessels were separated, and four blood vessels were randomly chosen for each group for photographing. The results were shown in FIG. 1, wherein, NaCl was the group of daubing NaCl (n=11), CaPO4 was the group of daubing CaPO4 plus water feed (n=12), CaPO4+NGN was the group of daubing CaPO4 μlus naringenin gavage (n=11), and CaPO4+Dox was the group of daubing CaPO4 μlus doxycycline gavage (n=11).

Data set [2] deals with abdominal aortic aneurysms in C57BL/6J mice with CaPO4 daubed infrarenal arteries. Briefly: Abdominal aortic aneurysm model induced by CaPO4 daubed infrarenal aortas, naringenin or doxycycline gavage. The data set is classed as in vivo. To be noted: CaPO4 daubed C57BL/6 mice; daily gavage 7 days; naringenin 50 mg/kg, doxycycline 100 mg/kg; average ± SD; CaPO4 + water 1.40±0.19, NaCl 0.77±0.06. Here is the method:
12-week old of male C57BL/6 mice were anesthetized via intraperitoneal injection of 0.1% pentobarbital sodium (injection according to body weight, […]). Infrarenal abdominal aortas were separated, and the separated infrarenal abdominal aortas were packaged by gauze (1 cm in width×3 cm in length) soaked in 0.5 M CaCl2 solution. After 10 minutes, the gauze was removed, gauze soaked in PBS was instead used to package the blood vessel for 5 min. CaCl2+and PO4^−3 in PBS can form CaPO4 crystal, that is, corresponding to daubing CaPO4 to the blood vessel. After packaging the blood vessel with gauze soaked in NaCl for 10 minutes, gauze soaked in PBS is instead used for 5 min, serving as NaCl daubed control group.
as §1
The blood vessels were sliced, and the change of the diameters in infrarenal abdominal aortas of mice were identified by H.E. staining. […] The data in FIG. 2A were an average value±standard deviation.
The fracture degree of elastic lamina is also an index showing the severity of abdominal aortic aneurysms. The degradation of elastic lamina is divided into four grades. The first grade means that the degradation of elastic lamina is less than 25%, with the second grade of 25%-50%, the third grade of 50%-75%, and the fourth grade means the fracture is more than 75%. We used Gomori staining to identify the fracture situation of elastic lamina of infrarenal abdominal aortas of mice. […] The data in FIG. 2B were an average value±standard deviation.

In the case of `C[C@H]1c2cccc(O)c2C(=O)C2=C(O)[C@]3(O)C(=O)C(C(N)=O)=C(O)[C@@H](N(C)C)[C@@H]3[C@@H](O)[C@@H]21` [doxycycline, reference compound], in data set [1], the Body weight was 21.0 ± 1.89 g, the Cholesterol came to 3.49 ± 0.64 mmol and the Triglyceride is given as 1.07 ± 0.32 mmol. In data set [2], the “diameters of infrarenal abdominal aortas (H.E. staining)” value is 0.99±0.18 mm.
